Measurements from paper PMC4211326, “H-CRRETAWAC-OH, a Lead Structure for the Development of Radiotracer Targeting Integrin α 5 β 1?” (BioMed Research International, 2014).
“And” between values parts separate entries of the source, which are not always exact repeats. Equal values may be shown once. Read-outs that look alike come from different tables or passages of the source. Where a SMILES comes first, the peptide text is derived from it. Bridges are numbered along the chain shown (N, C = ends). The star is where a group is joined. Propanoyl(2-F) = CC(F)C(=O)*

Tests used:
integrin α5β1 = biological target: T1, integrin α5β1 (Homo sapiens, UniProt P05556+P08648); assay: Isolated receptor binding assay, immobilised integrin, [125I]echistatin displacement; conditions: for Ki: immobilized integrin; for Suppression of the binding of [125I]echistatin to immobilised integrin α5β1: result in words
T1 construct: purchased Chemicon, Millipore
Experimental: (§1) The receptor binding assay was performed following the procedure described previously. In brief, commercially available purifiedα v β 3,α 5 β 1, orα IIb β 3 (Triton X-100 formulation, Chemicon, Millipore) was diluted in coating buffer (25 mM Tris-HCl, 150 mM NaCl, 1 mM CaCl2, 0.5 mM MgCl2, 1 mM MnCl2, pH 7.4), and an aliquot of 100 μL/well, corresponding to 25 ng/wellα v β 3, 100 ng/wellα 5 β 1, or 50 ng/wellα IIb β 3, was added to a 96-well microtiter plate (Maxisorb, Nunc, Wiesbaden, Germany) and incubated at 4°C overnight. The cells were incubated for two hours with blocking buffer (200 μL, coating buffer containing 1% (w/v) bovine serum albumin (BSA)) at room temperature. After washing twice with binding buffer (coating buffer with 0.1% (w/v) BSA) the cells were incubated in the presence of the competing ligand (90 μL, 0.5 pM to 500 nM echistatin; 0.05 nM to 50 μM peptide in binding buffer) with [^125I]echistatin (0.37 kBq/well, 10 μL, 0.05 nM; PerkinElmer, Germany) for 3 h. Afterwards, the cells were washed three times with binding buffer, and bound [^125I]echistatin was solubilised with warm NaOH (2 M). The radioactivity in the resulting samples was measured by a γ-counter. Each data point represents the mean from three cells. All measurements were repeated at least once. K i values were calculated using the software program GraphPad PRISM (GraphPad Software Inc., CA, USA).
(§2) The binding affinities were determined using isolated receptor binding assays where the different integrins (α 5 β 1,α v β 3, andα IIb β 3) were immobilised and [^125I]echistatin was replaced by increasing amounts of the different peptides tested. […] Introduction of the (RS)-2-fluoropropionic acid at the N-terminus of the peptide reduced the binding affinity by a factor of approx. 10.

integrin αIIbβ3 = biological target: T2, integrin αIIbβ3 (Homo sapiens, UniProt P05106+P08514); assay: as above
T2 construct: purchased Chemicon, Millipore
Experimental: as §1, §2

integrin αvβ3 = biological target: T3, integrin αvβ3 (Homo sapiens, UniProt P05106+P06756); assay: as above
T3 construct: purchased Chemicon, Millipore
Experimental: as §1, §2

α5β1 = system: α5β1; design: method as in PMID 7507494; conditions: read-out: IC50, inhibition of binding of fibronectin to α5β1; cited from earlier work
[1] = type: in vitro ADME, human
Experimental: The protein binding studies were carried out by incubating [^18F]FProp-C^*RRETAWAC^*-OH (1 MBq/mL) in fresh human serum at 37°C for different time points (30, 60, and 120 min). After incubation, the solution was passed through a spin column (MicroSpin G-50 columns; GE Healthcare, Buckinghamshire, United Kingdom). Protein binding was determined by measuring the activity fixed on the column and the activity in the eluate in the gamma counter. As control [^18F]FProp-C^*RRETAWAC^*-OH was incubated at the same concentration for 60 min in PBS instead of serum.

[2] = type: in vitro ADME, human; remark: listed apart in the source
Experimental: For stability studies, [^18F]FProp-C^*RRETAWAC^*-OH (approx. 2 MBq/mL) was incubated in human serum for 30, 60, and 120 min at 37°C. At each time point, aliquots of 100 μL were taken and proteins were precipitated using 150 μL acetonitrile. The suspension was treated for 5 min with ultrasound and subsequently centrifuged. The supernatant was diluted with water and analysed by HPLC.

[3] = system: DU145 human prostate carcinoma cells (αvβ3-negative and α5β1-positive); assay: Cell uptake study with/without blocking by H-C*RRETAWAC*-OH; type: cell-based; conditions: 37°C, with or without excess H-C*RRETAWAC*-OH
Experimental: (§3) M21 (α v β 3-positive andα 5 β 1-negative), […] (α v β 3-negative andα 5 β 1-positive), and M21L (both receptors negative) cells were maintained in Gibco RPMI 1640 (Life Technologies, Carlsbad, CA) containing 1% glutamine, 10% (v/v) fetal calf serum (FCS), and 1% penicillin/streptomycin/glutamine and grown in tissue culture flasks (Cellstar; Greiner Bio-One, Kremsmuenster, Austria) at 37°C in a humidified atmosphere of 5% CO2 (v/v). For cell uptake studies, cells were trypsinised, washed twice with binding buffer (10 mM HEPES (pH 7.4), 150 mM NaCl, 2 mM MnCl2, 0.1% BSA), and aliquots of 0.9 mL containing 2 × 10^6 cells were transferred to Eppendorf tubes. After addition of 50 μL radiotracer (>100,000 cpm), cells were incubated at 37°C for 120 min in triplicate with either 50 μL PBS with 0.5% BSA (unblocked) or 50 μL of 50 μM H-C^*RRETAWAC^*-OH in PBS/0.5% BSA (blocked), respectively.
(§4) Incubation was stopped by centrifugation (2 min, 1000 rpm); medium was removed and cells were washed twice with 1 mL ice-cold binding buffer. […] Cells were lysed by treatment in 1 N NaOH and […] radioactivity was collected (internalised radioligand fraction). Protein content in the NaOH fraction was determined using spectrophotometric determination with Bradford reagent (Sigma Aldrich, Vienna, Austria). Internalised radioactivity was expressed as percentage of total activity per mg protein.

[4] = system: M21-L human melanoma cells (both receptors negative); assay: as above; type: cell-based; conditions: 37°C, with or without excess H-C*RRETAWAC*-OH
Experimental: as §3, §4

[5] = Binding affinity (Ki) α5β1, average and standard deviation of the mean, or bound with n = 2, 125I-echistatin
[6] = Binding affinity (Ki) α5β1, single determinations, 125I-echistatin as radioligand
[7] = average and standard deviation of the mean, or bound with n = 2, 125I-echistatin, read-out: Binding affinity (Ki) α5β1
[8] = single determinations, 125I-echistatin as radioligand, read-out: Binding affinity (Ki) α5β1

T3 sequence (P06756 31-889 limits assumed): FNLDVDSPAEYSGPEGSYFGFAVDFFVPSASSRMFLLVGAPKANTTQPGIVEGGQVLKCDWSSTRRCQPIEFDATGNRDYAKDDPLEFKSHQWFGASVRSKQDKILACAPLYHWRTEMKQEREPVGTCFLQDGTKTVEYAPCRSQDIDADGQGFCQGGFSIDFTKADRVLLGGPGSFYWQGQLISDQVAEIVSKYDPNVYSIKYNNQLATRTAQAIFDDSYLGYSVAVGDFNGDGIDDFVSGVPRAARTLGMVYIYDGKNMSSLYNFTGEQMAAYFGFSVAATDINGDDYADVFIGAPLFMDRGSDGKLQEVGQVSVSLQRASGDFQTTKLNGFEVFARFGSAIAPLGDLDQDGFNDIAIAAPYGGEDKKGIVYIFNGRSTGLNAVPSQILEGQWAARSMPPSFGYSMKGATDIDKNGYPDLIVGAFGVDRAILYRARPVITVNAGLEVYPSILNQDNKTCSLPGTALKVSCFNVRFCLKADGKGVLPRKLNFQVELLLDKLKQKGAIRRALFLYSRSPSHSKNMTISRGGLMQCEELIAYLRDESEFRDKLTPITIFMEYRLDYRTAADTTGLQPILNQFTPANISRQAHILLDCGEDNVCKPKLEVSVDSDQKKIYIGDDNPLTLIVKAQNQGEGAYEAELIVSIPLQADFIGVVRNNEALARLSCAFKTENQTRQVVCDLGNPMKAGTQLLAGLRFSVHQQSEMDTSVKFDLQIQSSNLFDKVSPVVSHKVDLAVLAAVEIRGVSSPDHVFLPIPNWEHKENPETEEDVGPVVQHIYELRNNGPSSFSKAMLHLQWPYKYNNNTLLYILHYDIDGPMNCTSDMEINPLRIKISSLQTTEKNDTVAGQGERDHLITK
T3 sequence (P06756 891-1048 partner limits assumed): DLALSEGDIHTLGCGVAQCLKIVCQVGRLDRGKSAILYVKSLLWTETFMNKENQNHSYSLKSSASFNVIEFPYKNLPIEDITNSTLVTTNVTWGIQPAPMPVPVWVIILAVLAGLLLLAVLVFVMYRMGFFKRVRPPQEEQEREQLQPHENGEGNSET
T3 sequence (P05106 27-788): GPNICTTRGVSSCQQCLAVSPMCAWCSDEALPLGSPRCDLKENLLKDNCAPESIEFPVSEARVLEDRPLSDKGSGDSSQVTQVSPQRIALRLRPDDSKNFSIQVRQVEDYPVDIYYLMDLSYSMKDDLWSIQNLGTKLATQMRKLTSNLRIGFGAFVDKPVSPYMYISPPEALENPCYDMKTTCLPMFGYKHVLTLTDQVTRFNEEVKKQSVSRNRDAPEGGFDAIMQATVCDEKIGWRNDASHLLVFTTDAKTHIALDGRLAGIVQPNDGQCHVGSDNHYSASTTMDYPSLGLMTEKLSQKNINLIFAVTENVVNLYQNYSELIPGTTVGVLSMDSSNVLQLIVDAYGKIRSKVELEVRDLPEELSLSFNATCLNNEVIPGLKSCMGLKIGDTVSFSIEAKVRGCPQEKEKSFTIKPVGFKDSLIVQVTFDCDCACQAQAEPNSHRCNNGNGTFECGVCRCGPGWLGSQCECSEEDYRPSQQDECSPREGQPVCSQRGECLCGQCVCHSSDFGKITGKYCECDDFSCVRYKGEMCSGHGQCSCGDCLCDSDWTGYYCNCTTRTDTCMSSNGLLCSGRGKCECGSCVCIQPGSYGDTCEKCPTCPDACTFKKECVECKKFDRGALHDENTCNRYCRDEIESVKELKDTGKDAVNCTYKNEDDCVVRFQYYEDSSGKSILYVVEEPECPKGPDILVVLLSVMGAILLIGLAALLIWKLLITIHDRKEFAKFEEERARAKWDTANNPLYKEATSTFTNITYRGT
T1 sequence (P08648 42-894 limits assumed): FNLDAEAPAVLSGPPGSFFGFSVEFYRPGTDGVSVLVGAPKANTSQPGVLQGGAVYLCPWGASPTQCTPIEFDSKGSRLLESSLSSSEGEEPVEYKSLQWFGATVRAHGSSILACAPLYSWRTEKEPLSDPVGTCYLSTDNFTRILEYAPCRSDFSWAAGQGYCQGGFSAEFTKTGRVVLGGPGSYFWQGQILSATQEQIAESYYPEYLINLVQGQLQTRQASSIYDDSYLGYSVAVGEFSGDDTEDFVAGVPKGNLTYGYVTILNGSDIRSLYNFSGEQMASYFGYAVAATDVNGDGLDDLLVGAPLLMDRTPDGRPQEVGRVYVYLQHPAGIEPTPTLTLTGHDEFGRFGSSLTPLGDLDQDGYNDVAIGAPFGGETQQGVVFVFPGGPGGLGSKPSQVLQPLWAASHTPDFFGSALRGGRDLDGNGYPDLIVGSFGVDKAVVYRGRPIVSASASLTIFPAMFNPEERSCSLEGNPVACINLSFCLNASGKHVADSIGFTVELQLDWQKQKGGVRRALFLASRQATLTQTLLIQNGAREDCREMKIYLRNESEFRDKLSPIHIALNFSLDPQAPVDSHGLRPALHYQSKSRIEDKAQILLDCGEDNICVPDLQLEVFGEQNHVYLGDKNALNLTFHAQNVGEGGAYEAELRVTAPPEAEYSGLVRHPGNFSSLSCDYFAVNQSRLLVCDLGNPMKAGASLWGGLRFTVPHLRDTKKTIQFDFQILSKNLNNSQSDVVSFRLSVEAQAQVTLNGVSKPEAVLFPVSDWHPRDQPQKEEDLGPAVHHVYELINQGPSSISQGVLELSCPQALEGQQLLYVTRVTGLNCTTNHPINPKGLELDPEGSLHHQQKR
T1 sequence (P08648 895-1049 partner limits assumed): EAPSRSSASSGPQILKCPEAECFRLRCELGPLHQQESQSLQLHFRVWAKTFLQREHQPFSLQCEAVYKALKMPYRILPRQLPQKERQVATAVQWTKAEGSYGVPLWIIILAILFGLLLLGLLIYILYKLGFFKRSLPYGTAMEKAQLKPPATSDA
T1 sequence (P05556 21-798): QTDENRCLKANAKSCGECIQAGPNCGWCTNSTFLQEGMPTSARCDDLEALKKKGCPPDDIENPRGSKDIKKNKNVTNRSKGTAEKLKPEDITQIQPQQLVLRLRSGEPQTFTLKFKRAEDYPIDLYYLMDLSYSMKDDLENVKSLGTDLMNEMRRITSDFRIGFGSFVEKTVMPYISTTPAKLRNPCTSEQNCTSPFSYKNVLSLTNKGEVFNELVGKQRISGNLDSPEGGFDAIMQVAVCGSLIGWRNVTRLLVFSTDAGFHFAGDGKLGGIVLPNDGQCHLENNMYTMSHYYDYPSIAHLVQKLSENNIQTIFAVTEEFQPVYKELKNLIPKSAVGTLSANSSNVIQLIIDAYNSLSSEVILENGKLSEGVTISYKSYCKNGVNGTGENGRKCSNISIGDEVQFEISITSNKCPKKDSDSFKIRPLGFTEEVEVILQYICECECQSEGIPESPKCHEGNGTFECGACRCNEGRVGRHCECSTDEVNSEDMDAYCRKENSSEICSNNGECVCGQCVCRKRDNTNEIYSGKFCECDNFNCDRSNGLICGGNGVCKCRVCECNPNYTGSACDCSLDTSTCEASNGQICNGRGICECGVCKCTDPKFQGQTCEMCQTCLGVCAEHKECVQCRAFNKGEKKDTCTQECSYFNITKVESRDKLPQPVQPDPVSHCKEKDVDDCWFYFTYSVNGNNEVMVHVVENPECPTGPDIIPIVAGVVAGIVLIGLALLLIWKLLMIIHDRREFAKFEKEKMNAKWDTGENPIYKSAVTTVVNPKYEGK
T2 sequence (P08514 32-887 limits assumed): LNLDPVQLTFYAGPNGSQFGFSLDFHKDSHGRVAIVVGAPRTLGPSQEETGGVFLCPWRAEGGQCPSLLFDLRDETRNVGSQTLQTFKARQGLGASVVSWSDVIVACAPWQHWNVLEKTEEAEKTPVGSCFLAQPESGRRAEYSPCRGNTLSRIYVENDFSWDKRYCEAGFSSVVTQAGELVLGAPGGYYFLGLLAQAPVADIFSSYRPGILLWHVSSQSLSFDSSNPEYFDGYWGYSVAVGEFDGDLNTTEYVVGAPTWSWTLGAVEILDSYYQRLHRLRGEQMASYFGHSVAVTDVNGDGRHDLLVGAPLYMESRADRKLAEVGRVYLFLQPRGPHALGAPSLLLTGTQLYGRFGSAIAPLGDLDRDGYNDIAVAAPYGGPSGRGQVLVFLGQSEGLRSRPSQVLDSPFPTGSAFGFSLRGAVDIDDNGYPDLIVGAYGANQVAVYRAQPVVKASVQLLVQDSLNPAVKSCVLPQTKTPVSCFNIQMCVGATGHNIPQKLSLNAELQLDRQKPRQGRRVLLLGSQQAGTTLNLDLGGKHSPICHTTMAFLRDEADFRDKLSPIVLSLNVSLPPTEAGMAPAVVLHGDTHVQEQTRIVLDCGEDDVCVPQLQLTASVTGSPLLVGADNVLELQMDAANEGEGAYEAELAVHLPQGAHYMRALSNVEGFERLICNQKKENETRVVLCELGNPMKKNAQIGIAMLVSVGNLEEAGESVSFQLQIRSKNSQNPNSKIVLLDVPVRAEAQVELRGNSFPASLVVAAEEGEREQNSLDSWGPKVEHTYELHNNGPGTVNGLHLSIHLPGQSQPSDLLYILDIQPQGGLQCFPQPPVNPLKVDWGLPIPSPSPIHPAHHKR
T2 sequence (P08514 891-1039 partner limits assumed): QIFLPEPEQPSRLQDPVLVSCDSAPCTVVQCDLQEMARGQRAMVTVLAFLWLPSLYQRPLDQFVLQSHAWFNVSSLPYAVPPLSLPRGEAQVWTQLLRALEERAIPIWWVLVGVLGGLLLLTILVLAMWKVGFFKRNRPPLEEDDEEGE
T2 sequence (P05106 27-788): as the sequence (P05106 27-788) above

Compound | Ki (integrin α5β1; [5]) [nM] | Ki (integrin α5β1; [6]) | Ki (integrin α5β1; [7]) [nM] | Ki (integrin α5β1; [8]) | Suppression of the binding of [125I]echistatin to immobilised integrin α5β1 (integrin α5β1) | also measured
CC(F)C(=O)N[C@H]1CSSC[C@@H](C(=O)O)NC(=O)[C@H](C)NC(=O)[C@H](Cc2c[nH]c3ccccc23)NC(=O)[C@H](C)NC(=O)[C@H]([C@@H](C)O)NC(=O)[C@H](CCC(=O)O)NC(=O)[C@H](CCCNC(=N)N)NC(=O)[C@H](CCCNC(=N)N)NC1=O (some centres unmarked) [FProp-C∗RRETAWAC∗-OH (1)] ({Propanoyl(2-F)}-CRRETAWAC-OH; disulfide 1-9) | 44 ± 3 | 41 nM and 47 nM | – | – | – | Ki (integrin αIIbβ3): > 50 µM; Ki (integrin αvβ3): > 50 µM
CC(F)C(=O)N[C@H]1CSSC[C@@H](C(=O)O)NC(=O)[C@H](C)NC(=O)[C@H](Cc2c[nH]c3ccccc23)NC(=O)[C@H](C)NC(=O)[C@H]([C@@H](C)O)NC(=O)[C@H](CCC(=O)O)NC(=O)[C@H](CCCNC(=N)N)NC(=O)[C@H](CCCNC(=N)N)NC1=O (some centres unmarked) [FProp-C∗RRETAWAC∗-OH (2)] ({Propanoyl(2-F)}-CRRETAWAC-OH; disulfide 1-9) | 77 ± 50 | 127 nM and 26 nM | – | – | – | Ki (integrin αIIbβ3; read-out: Binding affinity (Ki) αIIbβ3, immobilized integrin, 125I-echistatin as radioligand): > 50 µM; Ki (integrin αvβ3; read-out: Binding affinity (Ki) αvβ3, immobilized integrin, 125I-echistatin as radioligand): > 50 µM
C[C@@H]1NC(=O)[C@H](Cc2c[nH]c3ccccc23)NC(=O)[C@H](C)NC(=O)[C@H]([C@@H](C)O)NC(=O)[C@H](CCC(=O)O)NC(=O)[C@H](C)NC(=O)[C@H](CCCNC(=N)N)NC(=O)[C@@H](N)CSSC[C@@H](C(=O)O)NC1=O [H-C∗RAETAWAC∗-OH] (H-CRAETAWAC-OH; disulfide 1-9) | – | – | 16 ± 1 | 17 nM and 15 nM | – | –
C[C@@H]1NC(=O)[C@H](Cc2c[nH]c3ccccc23)NC(=O)[C@H](C)NC(=O)[C@H]([C@@H](C)O)NC(=O)[C@H](CCC(=O)O)NC(=O)[C@H](CCCNC(=N)N)NC(=O)[C@H](CCCNC(=N)N)NC(=O)[C@@H](N)CSSC[C@@H](C(=O)O)NC1=O [H-C∗RRETAWAC∗-OH, H-Cys^*-Arg-Arg-Glu-Thr-Ala-Trp-Ala-Cys^*-OH] (H-CRRETAWAC-OH; disulfide 1-9) | – | – | 5.3 ± 4.1 | 10 nM and 3.9 nM and 2.1 nM | fully suppress | Ki (integrin αvβ3; immobilized integrin, 125I-echistatin as radioligand, read-out: Binding affinity (Ki) αvβ3): > 50 µM; IC50 (α5β1): 8 nM
FProp-C^*RRETAWAC^*-OH: non-radioactive reference compound, N-terminal (RS)-2-fluoropropionyl conjugate of the lead peptide ({(RS)‑2‑fluoropropionyl}-CRRETAWAC-OH; disulfide N-9) | – | – | – | – | fully suppress | –
[^18F]FProp-Cys^*-Arg-Arg-Glu-Thr-Ala-Trp-Ala-Cys^*-OH ({(18F)fluoropropionyl}-CRRETAWAC-OH; disulfide N-9) [[^18F]FProp-C^*RRETAWAC^*-OH, 18F-labelled radiopeptide tracer for integrin α5β1] | – | – | – | – | – | Protein bound activity in human serum [1]: below 6 % of the total incubated activity; Serum stability (percentage printed in Figure 2) [2]: 97.1%; Specific binding and internalisation (cell uptake) [3]: specific binding and internalisation; Specific uptake (cell uptake) [4]: no specific uptake
